The term EC50 denotes the midpoint of the concentration-response curve. The IC50 is the concentration needed to halve the response being measured.

The text below walks through data of ChEMBL document CHEMBL1159134, “Heterocyclic guanidines as calcium antagonists” (Bioorg Med Chem Lett, 1994).

“And” between values parts separate entries of the source, which are not always exact repeats. Equal entries are not always repeated. A value given as a limit tells only on which side of the number the result lay.

Assay [1] has as its target Voltage-gated L-type calcium channel (Rattus norvegicus, UniProt P22002+Q02485+P27732). The experiment in a line: Binding of [3H]nitrendipine to calcium channel in rat cerebral cortex. Type of assay: tissue-based.
The nature of assay [2]: Calcium channel-blocking effect was assessed in potassium ion depolarized guinea pig ileum strips by recording the contractile responses produced by varying concentrations of calcium chloride. Type of assay: functional, tissue-based. As to conditions: Cavia porcellus, read-out: pA2 (converted).
For assay [3], the target named is T1, Voltage-dependent L-type calcium channel subunit alpha-1C (Rattus norvegicus, UniProt P22002). The experiment in a line: Binding of [3H]nitrendipine to calcium channel in rat heart membranes. Type of assay: cell membranes, Membrane.
T1 sequence (P22002 whole entry): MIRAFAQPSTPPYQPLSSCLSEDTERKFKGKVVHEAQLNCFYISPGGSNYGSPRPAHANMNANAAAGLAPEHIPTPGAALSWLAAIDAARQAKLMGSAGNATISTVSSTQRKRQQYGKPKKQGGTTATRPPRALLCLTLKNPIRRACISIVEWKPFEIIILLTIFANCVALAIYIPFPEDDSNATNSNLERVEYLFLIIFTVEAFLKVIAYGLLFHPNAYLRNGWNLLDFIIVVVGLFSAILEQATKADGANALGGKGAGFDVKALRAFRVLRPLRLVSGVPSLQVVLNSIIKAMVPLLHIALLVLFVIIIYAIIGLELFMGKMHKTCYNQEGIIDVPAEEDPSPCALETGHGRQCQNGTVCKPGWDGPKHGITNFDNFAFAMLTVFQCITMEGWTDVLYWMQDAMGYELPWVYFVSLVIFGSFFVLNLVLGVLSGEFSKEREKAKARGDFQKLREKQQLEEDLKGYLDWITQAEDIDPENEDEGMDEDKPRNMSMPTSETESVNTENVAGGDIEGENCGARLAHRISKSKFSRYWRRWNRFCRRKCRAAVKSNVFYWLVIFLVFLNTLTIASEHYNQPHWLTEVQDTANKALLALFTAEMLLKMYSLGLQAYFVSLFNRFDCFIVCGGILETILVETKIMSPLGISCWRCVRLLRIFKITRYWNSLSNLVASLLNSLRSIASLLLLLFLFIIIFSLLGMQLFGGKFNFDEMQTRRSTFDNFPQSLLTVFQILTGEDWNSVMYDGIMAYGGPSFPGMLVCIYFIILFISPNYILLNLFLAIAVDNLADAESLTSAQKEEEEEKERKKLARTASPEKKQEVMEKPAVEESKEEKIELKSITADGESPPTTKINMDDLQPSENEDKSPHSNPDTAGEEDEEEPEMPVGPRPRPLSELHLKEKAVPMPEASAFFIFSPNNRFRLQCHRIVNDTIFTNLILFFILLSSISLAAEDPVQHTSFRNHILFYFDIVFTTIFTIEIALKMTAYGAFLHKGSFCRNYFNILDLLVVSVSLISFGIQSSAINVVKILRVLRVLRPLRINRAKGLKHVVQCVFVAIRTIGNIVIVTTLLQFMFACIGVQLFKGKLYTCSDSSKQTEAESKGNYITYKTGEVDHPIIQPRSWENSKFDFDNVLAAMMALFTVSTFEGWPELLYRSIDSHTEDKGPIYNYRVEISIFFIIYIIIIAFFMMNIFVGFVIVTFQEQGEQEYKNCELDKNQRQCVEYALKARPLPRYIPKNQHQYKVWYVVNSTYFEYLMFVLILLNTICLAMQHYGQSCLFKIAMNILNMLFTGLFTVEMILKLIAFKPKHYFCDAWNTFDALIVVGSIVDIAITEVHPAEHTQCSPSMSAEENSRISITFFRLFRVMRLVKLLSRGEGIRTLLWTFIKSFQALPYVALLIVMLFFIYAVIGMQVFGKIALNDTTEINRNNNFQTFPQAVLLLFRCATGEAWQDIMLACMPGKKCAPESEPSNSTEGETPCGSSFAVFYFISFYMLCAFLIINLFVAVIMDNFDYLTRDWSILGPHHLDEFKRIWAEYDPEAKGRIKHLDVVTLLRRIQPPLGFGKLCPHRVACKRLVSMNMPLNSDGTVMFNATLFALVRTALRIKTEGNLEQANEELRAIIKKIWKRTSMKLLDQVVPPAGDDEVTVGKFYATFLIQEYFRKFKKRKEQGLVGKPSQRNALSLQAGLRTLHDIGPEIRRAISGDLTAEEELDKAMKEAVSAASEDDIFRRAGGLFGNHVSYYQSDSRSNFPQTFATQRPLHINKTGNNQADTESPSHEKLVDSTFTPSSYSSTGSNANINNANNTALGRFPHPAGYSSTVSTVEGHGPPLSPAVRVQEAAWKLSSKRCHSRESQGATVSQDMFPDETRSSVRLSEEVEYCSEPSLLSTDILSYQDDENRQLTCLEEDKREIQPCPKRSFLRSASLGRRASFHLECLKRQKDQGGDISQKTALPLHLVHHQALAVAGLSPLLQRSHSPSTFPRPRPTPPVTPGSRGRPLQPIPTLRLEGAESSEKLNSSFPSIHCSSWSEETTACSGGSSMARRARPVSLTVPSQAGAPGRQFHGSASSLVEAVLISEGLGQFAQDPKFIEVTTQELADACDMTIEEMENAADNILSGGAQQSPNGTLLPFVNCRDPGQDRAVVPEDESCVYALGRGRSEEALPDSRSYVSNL
The target in assay [4] is T1, Voltage-dependent L-type calcium channel subunit alpha-1C. The experiment in a line: Binding of [3H]nitrendipine to calcium channel in rat heart membranes was determined. The class given is cell membranes, Membrane.

As for `CCCC(CN/C1=N/CCCCCCCCCCC1)(c1ccccc1)c1ccccc1`, the half-maximal effective concentration (EC50) in assay [1] was 61 nM; in assay [3] it was 34 nM. Besides, the Kb in assay [2] was 53.7 nM. The IC50 in assay [4] was over 1000 nM.
With `c1ccc(C(CCNC2=NCCCCN2)c2ccccc2)cc1`, in assay [2], the Kb was 240 nM. In addition, in assay [4], the IC50 is over 1000 nM.
The like results for `c1ccc(C(CNC2=NCc3ccccc3CN2)c2ccccc2)cc1` were, in that order, 81.3 nM and over 1000 nM.
For `CN1CCCN=C1NCCC(c1ccccc1)c1ccccc1`, in assay [2], the Kb was 240 nM. Further, the IC50 in assay [4] is over 1000 nM.
With `c1ccc(C(CNC2=NCCN2)c2ccccc2)cc1`, in assay [2], the Kb is 676 nM. Further, the IC50 in assay [4] was over 1000 nM.
Turning to `CN1CCN=C1NCCC(c1ccccc1)c1ccccc1`, the Kb in assay [2] is 257 nM. In addition, the IC50 in assay [4] was over 1000 nM.
On to `CN1CCN=C1NCCCC(c1ccccc1)c1ccccc1`, for which the Kb in assay [2] is 170 nM. Also, the IC50 in assay [4] was over 1000 nM.
As for `c1ccc(C(CCNC2=NCCCN2)c2ccccc2)cc1`, the Kb in assay [2] was 34.7 nM. In addition, the half-maximal inhibitory concentration (IC50) in assay [4] is over 1000 nM.
On to `c1ccc(C(CNC2=N[C@H]3CCCC[C@@H]3N2)c2ccccc2)cc1`, for which the Kb in assay [2] is 141 nM. In addition, the IC50 in assay [4] is over 1000 nM.
As for `COc1ccc([C@@H]2Sc3ccccc3N(CCN(C)C)C(=O)[C@@H]2OC(C)=O)cc1` [DILTIAZEM], in assay [2], the Kb was 41.7 nM.
With `c1ccc(C(CCN/C2=N/CCCCCN2)c2ccccc2)cc1`, the Kb in assay [2] is 37.2 nM. For the same molecule, in assay [4], the IC50 was over 1000 nM.
Consider `c1ccc(C(CCNC2=NCCN2)c2ccccc2)cc1`, for which the Kb in assay [2] is 57.5 nM. In assay [4], the IC50 was over 1000 nM.
The like results for `c1ccc(C(CNC2=NCCCCN2)c2ccccc2)cc1` were, in that order, 550 nM and over 1000 nM.
The corresponding values for `CN1CCN=C1NCC(c1ccccc1)c1ccccc1` are 1860 nM and over 1000 nM.
As to `c1ccc(C(CNC2=NCCCN2)c2ccccc2)cc1`, the Kb in assay [2] is 776 nM. Also, the concentration for half-maximal inhibition (IC50) in assay [4] is over 1000 nM.
Turning to `c1ccc(C(CCNC2=NCc3ccccc3CN2)c2ccccc2)cc1`, the Kb in assay [2] is 50.1 nM. In addition, the IC50 in assay [4] was over 1000 nM.
On to `c1ccc(C(CCNC2=N[C@H]3CCCC[C@@H]3N2)c2ccccc2)cc1`, for which the Kb in assay [2] was 132 nM. The 50% inhibitory concentration (IC50) in assay [4] is over 1000 nM.
`CN1CCCN=C1NCC(c1ccccc1)c1ccccc1`: in assay [2], the Kb is 1100 nM. For the same molecule, in assay [4], the IC50 was over 1000 nM.
Regarding `c1ccc([C@@H]2CCC[C@@H]2N/C2=N/CCCCCCCCCCC2)cc1`, the EC50 in assay [3] was 61 nM and 34 nM.
On to `c1ccc(C(CNC2=NCCCCCN2)c2ccccc2)cc1`, for which the Kb in assay [2] was 251 nM. In addition, in assay [4], the 50% inhibitory concentration (IC50) is over 1000 nM.
The corresponding values for `c1ccc(C(NC2=NCCN2)c2ccccc2)cc1` are 2510 nM and over 1000 nM.
